Molecular target: T1, Aspartate-semialdehyde dehydrogenase (Helicobacter pylori (strain ATCC 700392 / 26695) (Campylobacterpylori), UniProt O25801)
T1 sequence (O25801 whole entry): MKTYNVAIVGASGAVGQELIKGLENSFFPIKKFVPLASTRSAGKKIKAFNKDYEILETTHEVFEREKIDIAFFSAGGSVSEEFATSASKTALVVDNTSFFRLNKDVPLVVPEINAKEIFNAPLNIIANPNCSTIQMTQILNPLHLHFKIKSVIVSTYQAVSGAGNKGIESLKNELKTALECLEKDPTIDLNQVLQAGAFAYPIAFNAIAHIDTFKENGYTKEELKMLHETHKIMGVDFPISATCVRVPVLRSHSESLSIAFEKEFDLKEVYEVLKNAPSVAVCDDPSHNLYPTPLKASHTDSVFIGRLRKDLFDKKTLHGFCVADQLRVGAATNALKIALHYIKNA
Test: Inhibition of Helicobacter pylori His-tagged ASD assessed as inhibition of phosphorylation of aspartate semialdehyde

`N[C@@H](CSS(=O)(=O)O)C(=O)O` showed an IC50 of 0.18 µM.
For `C[n+]1ccc2c(c1)c(O)c1c3c(c4cc(Br)ccc4nc32)C(=O)C[N+]1(C)C` [PETROSAMINE B], the IC50 was 306 µM.

— ChEMBL document CHEMBL1158777, “Petrosamine B, an inhibitor of the Helicobacter pylori enzyme aspartyl semialdehyde dehydrogenase from the Australian sponge Oceanapia sp” (J Nat Prod, 2005)
